“And” between values parts separate entries of the source, which are not always exact repeats. Identical values can stand only once. Counter-ions that a name gives are not always drawn.
System: tomato leaf transpiration
Assay: tomato leaf transpiration inhibition (porometer, normalized to water-sprayed plants)
Format: in vivo, Tomato (variety: Rutgers)

[Ca+2].[Cl-].[Cl-] [CaCl2, calcium chloride]
Transpiration rate (% of control) (in vivo): 97 % of control and 101 % of control and 98 % of control | effect on tomato leaf transpiration (in words) (in vivo): did not affect tomato leaf transpiration

NC(N)=O [Urea, urea]
Transpiration rate (% of control) (1 mM urea alone, foliar, 1 day after treatment): 103 % of control | Transpiration rate (% of control) (1 mM urea alone, foliar, 2 days after treatment): 98 % of control | Transpiration rate (% of control) (1 mM urea alone, foliar, 3 days after treatment): 98 % of control | Transpiration rate (% of control) (1 mM urea alone, foliar, 4 days after treatment): 100 % of control | Transpiration rate (% of control) (10 mM urea alone, foliar, 1 day after treatment): 101 % of control | Transpiration rate (% of control) (10 mM urea alone, foliar, 2 days after treatment): 103 % of control | Transpiration rate (% of control) (10 mM urea alone, foliar, 3 days after treatment): 106 % of control | Transpiration rate (% of control) (10 mM urea alone, foliar, 4 days after treatment): 101 % of control | Transpiration rate (% of control) (100 mM urea alone, foliar, 1 day after treatment): 102 % of control | Transpiration rate (% of control) (100 mM urea alone, foliar, 2 days after treatment): 102 % of control | Transpiration rate (% of control) (100 mM urea alone, foliar, 3 days after treatment): 107 % of control | Transpiration rate (% of control) (100 mM urea alone, foliar, 4 days after treatment): 102 % of control | effect on tomato leaf transpiration (in words) (fertilizer or salt alone at 1, 10 or 100 mM, foliar): did not reduce tomato leaf transpiration

(S)-5-(1-hydroxy-2,6,6,-trimethyl-4-oxo-2-cyclohexen-1-yl)-3-methyl-(2Z,4E)-pentadienoic acid [ABA, reference compound]
Transpiration rate (% of control), Average (in vivo): 69 % of control and 78 % of control

CC1=CC(=O)CC(C)(C)[C@@]1(O)/C=C/C(C)=C\C(=O)O [ABA ammonium salt, Ammonium Salt of (S)-(+)-Abscisic Acid]
Transpiration rate (% of control) (in vivo): 57 % of control and 67 % of control and 78 % of control and 76 % of control and 88 % of control | Transpiration rate (% of control), Average (in vivo): 68 % of control and 81 % of control

— patent US7837757B2, “Enhanced abscisic acid and fertilizer performance” (Valent BioSciences Corporation, priority 2007, dated 2010)
